In general, IC50 refers to the concentration at which inhibition is half-maximal.

Ten compounds from patent US5656654A, “Arylidene and heteroarylidene oxindole derivatives and process for their preparation” (Farmitalia Carlo Erba S.r.l., priority 1993, dated 1997) can be followed below.

In experiment [1] the test system is K562 cells (human chronic myeloid leukemia). Nature of the experiment: K562 cell growth inhibition assay ([^3-H]-Thymidine, headed In Vivo ASSAY). The format is cell-based. The settings on record: K562 cells in suspension, 66 h, with or without 10% foetal calf serum. How it is done: K562 cell growth inhibition assay. 1 ml of K562 cells, grown in suspension, were incubated for 66 h with or without 10% foetal calf serum in the presence of 1 μCi of [^3 -H]-Thymidine. Cells were harvested, washed three times in cold PBS and treated with 5% trichloroacetic acid for 5 min on ice. After a wash in ethanol: ether 2:1, the DNA was extracted by 0.5N NaOH for 2 h at room temperature. The extract was counted in a liquid scintillation counter.
(§1) The inhibitory activity data for a representative group of compounds according to the present invention, obtained both in the in vitro p45 v-abl kinase assay and in the in vivo human chronic myeloid leukemia K 562 cell growth inhibition assay described above, are set out in following Table 1.

Experiment [2] addresses T1, p45 v-abl kinase (Abelson murine leukemia virus, UniProt P00521).
T1 construct: by cited methods bacterially expressed (E. coli)
Nature of the experiment: p45 v-abl Kinase Assay ((Val^5)-Angiotensin II phosphorylation, in vitro). The format is biochemical. How it is done:
p45 v-abl kinase purification. The enzyme used in our test was the p45 v-abl tyrosine kinase which represents the catalytic domain of the Abelson tyrosine kinase (isolated from the Abelson murine leukemia virus). The p45 v-abl kinase was produced and isolated as described by Wang et al. in J. Biol. Chem. 260, 64 (1985) and by Ferguson et al. in J. Biol. Chem. 260, 3652 (1985) and in Biochem. J. 257, 321 (1989).
p45 v-abl Kinase Assay. (Val^5)-Angiotensin II phosphorylation was performed by incubation with 40 ng of purified abl-kinase and (γ-^32 P)-ATP, in 50 μl of buffer containing Tris-HCl 25 mM, pH 8.0, MgCl2 10 mM and dithiothreitol 0.1 mM (kinase buffer). The reaction mixture was incubated for the indicated time at 30° C. and the reaction stopped by adding 50 μl of 5% trichloroacetic acid. After a brief incubation on ice, tubes were centrifuged. The supernatants were spotted on phosphocellulose paper squares (Whatman P-81) and washed extensively in acetic acid. The radioactivity bound to dried phosphocellulose squares was measured in a liquid scintillation counter. IC50 values were calculated from triplicate determinations of each experimental point. Each inhibitor was tested at concentrations ranging from […] in the presence of fixed concentrations of peptide (2 mM) and ATP (50 μM).
as §1

T1 sequence (P00521 whole entry): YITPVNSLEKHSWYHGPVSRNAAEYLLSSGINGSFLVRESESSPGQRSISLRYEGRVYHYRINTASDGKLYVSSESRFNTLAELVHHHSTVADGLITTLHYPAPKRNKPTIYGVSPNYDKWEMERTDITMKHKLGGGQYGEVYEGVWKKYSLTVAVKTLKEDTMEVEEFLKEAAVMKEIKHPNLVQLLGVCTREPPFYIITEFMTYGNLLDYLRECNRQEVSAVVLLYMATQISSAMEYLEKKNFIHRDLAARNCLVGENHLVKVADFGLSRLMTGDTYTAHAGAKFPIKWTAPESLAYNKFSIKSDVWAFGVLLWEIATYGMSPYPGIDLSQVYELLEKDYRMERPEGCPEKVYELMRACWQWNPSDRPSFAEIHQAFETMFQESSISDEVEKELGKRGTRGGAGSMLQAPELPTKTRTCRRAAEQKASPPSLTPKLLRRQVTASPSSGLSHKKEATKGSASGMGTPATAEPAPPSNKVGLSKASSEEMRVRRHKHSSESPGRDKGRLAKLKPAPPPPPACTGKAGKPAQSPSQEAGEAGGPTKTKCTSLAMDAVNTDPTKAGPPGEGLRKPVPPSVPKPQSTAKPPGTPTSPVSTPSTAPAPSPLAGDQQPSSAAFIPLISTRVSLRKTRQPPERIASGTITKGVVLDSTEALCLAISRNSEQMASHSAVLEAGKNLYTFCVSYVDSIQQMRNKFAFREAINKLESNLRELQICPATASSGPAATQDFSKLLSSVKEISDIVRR

Consider `Nc1ccc2c(c1)C(=Cc1ccc(O)c3ncccc13)C(=O)N2` [FCE 27518, 5-amino-3-[(8'-hydroxy-5'-quinolyl)methylene]-2-oxindole], for which the results for the IC50 in experiment [1] and in experiment [2] were 1.2 µM and 6900 nM, respectively.
In the case of `COc1ccc2[nH]cc(C=C3C(=O)Nc4ccccc43)c2c1` [FCE 27564, 3-[(5'-methoxy-3'-indolyl)methylene]-2-oxindole], the IC50 amounted to 4.15 µM in experiment [1] and 800 nM in experiment [2].
Take `N#Cc1ccc2[nH]cc(C=C3C(=O)Nc4ccccc43)c2c1` [FCE 27565, 3-[(5'-cyano-3'-indolyl)methylene]-2-oxindole]: the IC50 in experiment [2] is 2400 nM.
Take `Cc1[nH]c2ccccc2c1C=C1C(=O)Nc2ccccc21` [FCE 27566, 3-[(2'-methyl-3'-indolyl)methylene]-2-oxindole]: the IC50 in experiment [1] was found to be 2.2 µM; in experiment [2], 15600 nM.
The corresponding values for `O=C1Nc2ccccc2C1=Cc1c[nH]c2ccc(O)cc12` [FCE 27866, 3-[(5'-hydroxy-3'-indolyl)methylene]-2-oxindole] are 8.75 µM and 5200 nM.
The corresponding values for `O=C1Nc2ccc(Br)cc2C1=Cc1ccc(O)c2ncccc12` [FCE 27996, 5-bromo-3-[(8'-hydroxy-5'-quinolyl)methylene]-2-oxindole] are 0.62 µM and 2600 nM.
The corresponding values for `O=C1Nc2ccc(O)cc2C1=Cc1ccc(O)c2c1CCCC2` [FCE 28337, 5-hydroxy-3-[(4'-hydroxy-1'-tetralyl)methylene]-2-oxindole] are 11.5 µM and 2320 nM.
`COc1ccc2[nH]cc(C=C3C(=O)Nc4ccc(O)cc43)c2c1` [FCE 28359, 5-hydroxy-3-[(5'-methoxy-3'-indolyl)methylene]-2-oxindole]: the IC50 worked out at 8.15 µM in experiment [1] and 390 nM in experiment [2].
The corresponding values for `Nc1ccc2c(c1)C(=Cc1cc(O)c3c(c1O)CCCC3)C(=O)N2` [FCE 28360, 5-amino-3-[(1',4'-dihydroxy-2'-tetralyl)methylene]-2-oxindole] are 6.25 µM and 4700 nM.
For `COc1ccc2[nH]cc(C=C3C(=O)Nc4ccc(N)cc43)c2c1` [FCE 28436, 5-amino-3-[(5'-methoxy-3'-indolyl)methylene]-2-oxindole] the same measures were 14.5 µM and 305 nM.
